According to ChEMBL document CHEMBL1821579, “Discovery of amide replacements that improve activity and metabolic stability of a bis-amide smoothened antagonist hit” (Bioorg Med Chem Lett, 2011):
Activity calls are given as the source filed them. The calls are words filed in the database; no cut-off is given here.

Key:
[1] = target: Protein smoothened (Homo sapiens, UniProt Q99835); test: Antagonist activity at human SMO expressed in HEPM cells assessed as reduction of GLI expression after 24 hrs by Quantigene assay; type: functional, cell-based
[2] = Oral bioavailability in rat at 5 mg/kg; type: ADME, organism-based; conditions: in vivo
[3] = target: Protein smoothened (Mus musculus, UniProt P56726); test: Antagonist activity at mouse SMO expressed in NIH/3T3 cells transfected with Gli-dependent luciferase-reporter after 15 hrs by luciferase reporter gene assay using luminometer; type: functional, cell-based
[4] = Clearance in rat at 0.5 mg/kg, iv; type: ADME, organism-based; set-up: dose 0.5 mg/kg, route intravenous; conditions: in vivo
[5] = Clearance in rat liver microsomes assessed as compound metabolized after 30 mins; type: ADME, Microsome; conditions: read-out: Activity
[6] = target: Protein smoothened (Rattus norvegicus) (UniProt P97698); test: Antagonist activity at SMO in rat hepatocyte; type: functional, cell-based
[7] = Metabolic stability in rat hepatocyte assessed as compound remaining at 30 mins; type: ADME, cell-based; conditions: hepatocytes, read-out: Stability

Chain of Protein smoothened (Homo sapiens, UniProt Q99835) (Q99835 whole entry): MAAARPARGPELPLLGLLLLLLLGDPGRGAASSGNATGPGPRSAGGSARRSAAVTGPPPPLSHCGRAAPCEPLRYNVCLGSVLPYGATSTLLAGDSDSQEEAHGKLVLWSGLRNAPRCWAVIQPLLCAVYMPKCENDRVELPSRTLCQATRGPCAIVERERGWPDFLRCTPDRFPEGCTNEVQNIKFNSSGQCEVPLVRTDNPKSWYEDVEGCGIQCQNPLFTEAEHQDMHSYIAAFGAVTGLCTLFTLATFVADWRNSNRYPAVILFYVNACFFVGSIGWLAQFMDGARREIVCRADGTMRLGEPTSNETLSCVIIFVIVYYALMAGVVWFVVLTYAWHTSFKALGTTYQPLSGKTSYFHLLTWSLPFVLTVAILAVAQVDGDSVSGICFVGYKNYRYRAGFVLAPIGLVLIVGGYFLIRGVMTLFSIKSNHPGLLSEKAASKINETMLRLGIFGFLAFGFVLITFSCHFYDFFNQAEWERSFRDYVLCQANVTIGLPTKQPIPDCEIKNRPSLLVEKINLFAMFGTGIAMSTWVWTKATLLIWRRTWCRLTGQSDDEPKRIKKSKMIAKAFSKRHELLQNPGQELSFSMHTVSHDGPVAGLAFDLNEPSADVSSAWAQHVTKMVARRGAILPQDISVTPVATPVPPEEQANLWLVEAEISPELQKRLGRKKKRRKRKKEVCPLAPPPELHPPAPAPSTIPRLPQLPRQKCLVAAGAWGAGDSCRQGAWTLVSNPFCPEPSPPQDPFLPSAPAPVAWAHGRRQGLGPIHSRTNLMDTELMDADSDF
Chain of Protein smoothened (Mus musculus, UniProt P56726) (P56726 whole entry): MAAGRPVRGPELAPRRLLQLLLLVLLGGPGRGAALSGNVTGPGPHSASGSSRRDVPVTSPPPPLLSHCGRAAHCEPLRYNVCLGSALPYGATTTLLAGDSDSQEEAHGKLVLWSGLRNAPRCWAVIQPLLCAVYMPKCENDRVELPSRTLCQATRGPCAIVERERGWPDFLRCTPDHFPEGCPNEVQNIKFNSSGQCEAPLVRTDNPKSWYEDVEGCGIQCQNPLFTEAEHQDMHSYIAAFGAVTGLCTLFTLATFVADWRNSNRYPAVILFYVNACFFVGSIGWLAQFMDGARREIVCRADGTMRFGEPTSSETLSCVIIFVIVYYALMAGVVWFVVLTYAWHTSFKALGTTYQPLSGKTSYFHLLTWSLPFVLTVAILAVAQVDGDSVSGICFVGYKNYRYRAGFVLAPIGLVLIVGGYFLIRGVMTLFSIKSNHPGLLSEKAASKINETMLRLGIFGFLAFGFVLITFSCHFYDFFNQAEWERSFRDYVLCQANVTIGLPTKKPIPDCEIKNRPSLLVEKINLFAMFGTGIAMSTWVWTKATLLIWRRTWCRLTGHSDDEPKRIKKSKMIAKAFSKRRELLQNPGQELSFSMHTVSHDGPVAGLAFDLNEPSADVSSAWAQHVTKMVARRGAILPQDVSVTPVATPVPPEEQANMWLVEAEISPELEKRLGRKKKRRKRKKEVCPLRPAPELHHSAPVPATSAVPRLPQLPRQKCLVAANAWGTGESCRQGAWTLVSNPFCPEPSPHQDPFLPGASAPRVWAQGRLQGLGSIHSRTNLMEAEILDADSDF
Chain of Protein smoothened (Rattus norvegicus) (P97698 whole entry): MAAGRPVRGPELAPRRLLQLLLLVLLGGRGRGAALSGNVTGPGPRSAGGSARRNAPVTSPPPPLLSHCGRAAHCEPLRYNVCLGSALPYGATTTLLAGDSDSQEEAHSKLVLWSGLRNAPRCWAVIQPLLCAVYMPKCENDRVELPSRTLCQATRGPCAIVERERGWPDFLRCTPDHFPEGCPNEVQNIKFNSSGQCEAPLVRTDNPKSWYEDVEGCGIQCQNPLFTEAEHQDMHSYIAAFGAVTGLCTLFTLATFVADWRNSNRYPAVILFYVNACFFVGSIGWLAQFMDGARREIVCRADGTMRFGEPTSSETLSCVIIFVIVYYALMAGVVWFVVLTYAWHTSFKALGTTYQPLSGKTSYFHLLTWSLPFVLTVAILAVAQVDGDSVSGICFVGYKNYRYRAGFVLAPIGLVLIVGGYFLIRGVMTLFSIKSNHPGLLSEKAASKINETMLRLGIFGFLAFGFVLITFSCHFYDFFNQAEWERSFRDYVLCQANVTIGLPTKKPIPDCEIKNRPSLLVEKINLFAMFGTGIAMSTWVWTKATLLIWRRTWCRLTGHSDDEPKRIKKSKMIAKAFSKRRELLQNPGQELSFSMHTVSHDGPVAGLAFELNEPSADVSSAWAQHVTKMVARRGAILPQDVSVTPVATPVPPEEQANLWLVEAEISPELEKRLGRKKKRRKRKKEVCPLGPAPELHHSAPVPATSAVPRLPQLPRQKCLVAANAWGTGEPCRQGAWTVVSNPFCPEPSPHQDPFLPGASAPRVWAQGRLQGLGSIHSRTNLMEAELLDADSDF

Row | SMILES | IC50 [1] [nM] | other results
1 | O=C(Nc1ccc(-c2cc(-c3ccccc3)ncn2)cc1)c1ccccc1Cl | 48 | –
2 | Cc1oc(-c2ccc(NC(=O)c3ccccc3Cl)cc2)nc1-c1ccccc1 | 44 | –
3 | O=C(Nc1ccc(-c2coc(-c3ccccc3)n2)cc1)c1ccccc1Cl | 93 | –
4 | O=C(Nc1ccc(-c2nc(-c3ccccc3)c(C(F)(F)F)o2)cc1)c1ccccc1Cl | 31 | bioavailability [2]: 47%; IC50 [3]: 17 nM; clearance [4]: 3.83 mL/min/kg; metabolised at 0.5 h [5]: < 10%
5 | O=C(Nc1ccc(-c2ncc(-c3ccccc3)o2)cc1)c1ccccc1Cl | 40 | –
6 | O=C(Nc1ccc(-c2cccc(-c3ccccc3)c2)cc1)c1ccccc1Cl | 6.4 | –
7 | O=C(Nc1ccc(-c2ccnc(-c3ccccc3)n2)cc1)c1ccccc1Cl | 27 | –
8 | O=C(Nc1ccc(-c2cc(-c3ccccc3)ccn2)cc1)c1ccccc1Cl | 7.2 | bioavailability [2]: 27%; IC50 [3]: 26 nM; clearance [4]: 2.83 mL/min/kg; metabolised at 0.5 h [5]: 41%
9 | O=C(Nc1ccc(-c2ccnc(-c3ccccc3)c2)cc1)c1ccccc1Cl | 93 | –
10 | O=C(Nc1ccc(-c2cncc(-c3ccccc3)c2)cc1)c1ccccc1Cl | 28 | –
11 | CC(=O)Nc1ccc(NC(=O)c2ccccc2Cl)cc1 | – | inhibition [6]: inactive
12 | O=C(Nc1ccc(-c2nc(-c3ccccc3)cs2)cc1)c1ccccc1Cl | 27 | –
13 | O=C(Nc1ccc(-c2cccc(-c3ccccc3)n2)cc1)c1ccccc1Cl | 33 | –
14 | O=C(Nc1ccc(-c2nnc(-c3ccccc3)o2)cc1)c1ccccc1Cl | 89 | –
15 | O=C(Nc1ccc(-c2nc(-c3ccccc3)co2)cc1)c1ccccc1Cl | 63 | –
16 | O=C(Cc1ccc(NC(=O)c2ccccc2Cl)cc1)c1ccccc1 | 79 | –
17 | O=C(Nc1ccc(NC(=O)c2ccccc2Cl)cc1)c1ccccc1 | 13 | bioavailability [2]: 12%; remaining at 0.5 h [7]: 3%; clearance [4]: 23.3 mL/min/kg; metabolised at 0.5 h [5]: < 10%
18 | O=C(Nc1ccc(-c2csc(-c3ccccc3)n2)cc1)c1ccccc1Cl | 109 | –
19 | O=C(Nc1ccc(/C=C/c2ccccc2)cc1)c1ccccc1Cl | 49 | –
20 | O=C(Nc1ccc(CC(O)c2ccccc2)cc1)c1ccccc1Cl (racemic) | 14 | –
21 | O=C(Nc1ccc(-c2nccc(-c3ccccc3)n2)cc1)c1ccccc1Cl | 37 | –
